Measurements taken from patent publication US20250129096A1, “ANNULATED 2-AMINO-3-CYANO THIOPHENES AND DERIVATIVES FOR THE TREATMENT OF CANCER” (Boehringer Ingelheim Int'l GmbH Corp., priority 2021, published 2025).
Read-outs that look alike come from different tables or passages of the source.

Key:
KRAS (G12D)::SOS1 = biological target: T1, KRAS (G12D)::SOS1 (Homo sapiens, UniProt P01116, G12D); experiment: KRAS::SOS1 AlphaScreen binding assay, KRAS G12D
T1 construct: KRAS (G12D) 1-169, N-terminal 6His-tag, C-terminal avi-tag; 6His-tag (N); purchased Xtal BioStructures, Inc. (KRAS G12D); Viva Biotech Ltd (SOS1)
Method: (§1) Low IC50 values in this assay setting are indicative of strong inhibition of protein-protein interaction between SOS1 and KRAS:
(§2) These assays measure the inhibitory effect of compounds on KRAS mutant protein-protein interactions using the Alpha Screen technology by Perkin Elmer.
(§3) For the chosen highest assay concentration of 100 μM, 150 nL of compound solution are transferred from a 10 mM DMSO compound stock solution. A series of eleven fivefold dilutions per compound are transferred to the assay plate, compound dilutions are tested in duplicates. DMSO are added as backfill to a total volume of 150 nL.
(§4) The assays run on a fully automated robotic system in a darkened room below 100 Lux. To 150 nl of compound dilution 10 μl of a mix including KRAS mutant protein, SOS1 (final assay concentrations see above) and GDP nucleotide (Sigma G7127; final assay concentration 10 μM) in assay buffer (1×PBS, 0.1% BSA, 0.05% Tween 20) are added into columns 1-24. After 30 minutes incubation time 5 μl of Alpha Screen bead mix in assay buffer are added into columns 1-23.
(§5) Plates are kept at room temperature in a darkened incubator. After an additional 60 minutes incubation time the signal is measured in a PerkinElmer Envision HTS Multilabel Reader using the AlphaScreen specs from PerkinElmer.
(§6) IC50 values are calculated and analyzed with Boehringer Ingelheim's MEGALAB IC50 application using a 4 parametric logistic model.

KRAS (G12C)::SOS1 = biological target: T2, KRAS (G12C)::SOS1 (Homo sapiens, UniProt P01116, C118S/C51S/C80L/G12C); experiment: KRAS::SOS1 AlphaScreen binding assay, KRAS G12C
T2 construct: KRAS (G12C) 1-169, N-terminal 6His-tag for purification, cleaved off; 6His-tag (N, cleaved yes)
Method: as §1, §2, §3, §4, §5, §6

KRAS G12D Ba/F3 cells = KRAS G12D Ba/F3 cells (Homo sapiens, UniProt P01116, G12D, cells depend on it); experiment: Ba/F3 proliferation assay, KRAS G12D; assay type: cell-based; conditions: 72 h, AlamarBlue; read-out: KRAS G12D Ba/F3 IC50
Method: (§7) To generate KRASG12-dependent Ba/F3 models, Ba/F3 cells are transduced with retroviruses containing vectors that harbor KRASG12 isoforms. Platinum-E cells (Cell Biolabs) are used for retrovirus packaging. Retrovirus is added to Ba/F3 cells. To ensure infection, 4 μg/mL polybrene is added and cells are spinfected. […] Cells with an infection efficiency of 10% to 20% are further cultivated and puromycin selection with 1 μg/mL is initiated. As a control, parental Ba/F3 cells are used to show selection status. Selection is considered successful when parental Ba/F3 cells cultures died. To evaluate the transforming potential of KRASG12 mutations, the growth medium is no longer supplemented with IL-3. Ba/F3 cells harboring the empty vector are used as a control. Approximately ten days before conducting the experiments, puromycin is left out. […] All treatments are performed in technical duplicates. […] AlamarBlue™(ThermoFisher), a viability stain, is added and fluorescence measured in the PerkinElmer Envision HTS Multilabel Reader. The raw data are imported into and analyzed with the Boehringer Ingelheim proprietary software MegaLab (curve fitting based on the program PRISM, GraphPad Inc.).

KRAS G12C Ba/F3 cells = KRAS G12C Ba/F3 cells (Homo sapiens, UniProt P01116, G12C, cells depend on it); experiment: Ba/F3 proliferation assay, KRAS G12C; assay type: cell-based; conditions: 72 h, AlamarBlue; read-out: KRAS G12C Ba/F3 IC50
Method: as §7

[1] = tested on: NCI-H358 cells (NSCLC, G12C); experiment: NCI-H358 CTG proliferation assay (120 h), assay 2; assay type: cell-based; conditions: Homo sapiens, CellTiter-Glo, 384-well, 200 cells per well
Method: NCI-1H358 cells (ATCC No. CRL-5807) are dispensed into white bottom opaque 96 well plates (Perkin Elmer cat no. 5680) at a density of 2000 cells per well in 100 μL RPM 1-1640 ATCC-Formulation (Gibco #A10491)+10% FCS (fetal calf serum) (assay 1) or into black 384-well plates, flat and clear bottom (Greiner, PNr. 781091) at a density of 200 cells per well in 60 μl RPMI-1640 ATCC-Formulation (Gibco #A10491)+10% FCS (fetal calf serum) (assay 2). […] Compounds (10 mM stock in DMSO) are added at logarithmic dose series using the HP Digital Dispenser D300 (Tecan) (assay 1) or the ECHO acoustic liquid handler system (Beckman Coulter) (assay 2), normalizing for added DMSO and including DMSO controls. For the TO time point measurement, untreated cells are analyzed at the time of compound addition. Plates are incubated for 120 h, and cell viability is measured using CellTiter-Glo luminescent cell viability reagent (Promega product code G7570). Viability (stated as percent of control) is defined as relative luminescence units RLU of each well divided by the RLU of cells in DMSO controls. IC50 values are determined from viability measurements by non-linear regression using a four-parameter model.

CYP3A4 = biological target: T3, CYP3A4 (Homo sapiens, UniProt P08684); experiment: Mechanism based inhibition of CYP3A4 assay (MBI 3A4); assay type: in vitro ADME; conditions: 25 uM, hydroxy-midazolam formation after 30 min preincubation relative to 0 min, human liver microsomes
T3 construct: assayed in human liver microsomes (0.02 mg/mL) with midazolam (15 μM) as a substrate; from tissue; host or cells: human liver microsomes
Method: After preincubation, the incubate is diluted 1:10 and the substrate midazolam is added for the main incubation (15 min). The main incubation is quenched with acetonitrile and the formation of hydroxy-midazolam is quantified via LC/MS-MS. The formation of hydroxy-midazolam from the 30 min preincubation relative to the formation from the 0 min preincubation is used as a readout. Values of less than 100% mean that the substrate midazolam is metabolized to a lower extent upon 30 min preincubation compared to 0 min preincubation. In general low effects upon 30 min preincubation are desired (corresponding to values close to 100%/not different to the values determined with water control).

[2] = Solubility measurement (DMSO solution precipitation method); assay type: physicochemical; conditions: aqueous buffer, kinetic from dmso stock, ambient temperature
Method: The DMSO solution is diluted with an aqueous medium (McIlvaine buffer with pH=4.5 or 6.8) to a final concentration of 250 μM. After 24 h of shaking at ambient temperature a potentially formed precipitate is removed by filtration. The concentration of the test compound in the filtrate is determined by LC-UV methods by calibrating the signal to the signal of a reference solution with complete dissolution of the test compound in acetonitrile/water (1:1) with known concentration.

Caco-2 assay = assay type: in vitro ADME; conditions: human; for Papp A→B at 90 min, 10 μM: Caco-2, apical to basolateral, pH 7.4, read-out: Caco PappAB; for efflux ratio at 90 min, 10 μM: Caco-2, pH 7.4, efflux ratio PappBA/PappAB, read-out: Caco ER
Text: The assay provides information on the potential of a compound to pass the cell membrane, on the extent of oral absorption as well as on whether the compound is actively transported by uptake and/or efflux transporters. Permeability measurements across polarized, confluent Caco-2 cell monolayers grown on permeable filter supports (Corning, catalog #3391) are used. […] The receiver and donor compartments contain 0.25% bovine serum albumine (BSA) in assay buffer. Passive diffusion and/or active transport of compounds across the monolayer is measured in both apical to basolateral (a-b) and basolateral to apical (b-a) direction. a-b permeability (PappAB) represents drug absorption from the intestine into the blood and b-a permeability (PappBA) drug secretion from the blood back into the intestine via both passive permeability as well as active transport mechanisms mediated by efflux and uptake transporters that are expressed on the Caco-2 cells. After a pre-incubation of 25-30 min at 37° C., at predefined time points (0, 30, 60 and 90 min), samples were taken from the receiver and donor compartment, respectively. Concentrations of test compounds in samples were measured by HPLC/MS/MS, samples from the donor compartment were diluted 1:50 (v:v) with assay buffer, samples from receiver compartment were measured without dilution.
Apparent permeabilities in a-b (PappAB) and b-a (PappBA) directions are calculated according to the formula:
[formula] • Vrec [mL]: buffer volume in receiver compartment • Cdon [μmol/mL]: concentration of test compound in donor compartment at t=0 • ΔCrec: difference between concentrations of test compound in receiver compartment at start and end of incubation time • Δt: Incubation time • Vrec·ΔCrec/Δt [μmol/min]: Amount of compound transferred to receiver compartment per time • A [cm^2]: filter surface
Caco-2 efflux ratios (ER) are calculated as the ratio of PappBA/PappAB.

[3] = McIlvaine buffer pH 4.5, 24 h, read-out: solubility pH 4.5
[4] = McIlvaine buffer pH 6.8, 24 h, read-out: solubility pH 6.8

Sequence of KRAS G12D Ba/F3 cells (P01116 whole entry G12D, canonical isoform): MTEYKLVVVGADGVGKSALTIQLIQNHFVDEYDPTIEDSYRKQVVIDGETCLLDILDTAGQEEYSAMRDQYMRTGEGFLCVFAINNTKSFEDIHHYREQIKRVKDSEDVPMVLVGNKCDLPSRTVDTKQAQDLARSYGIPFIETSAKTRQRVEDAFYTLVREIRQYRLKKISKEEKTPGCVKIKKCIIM
T1 sequence (P01116 1-169 isoform P01116-2 G12D): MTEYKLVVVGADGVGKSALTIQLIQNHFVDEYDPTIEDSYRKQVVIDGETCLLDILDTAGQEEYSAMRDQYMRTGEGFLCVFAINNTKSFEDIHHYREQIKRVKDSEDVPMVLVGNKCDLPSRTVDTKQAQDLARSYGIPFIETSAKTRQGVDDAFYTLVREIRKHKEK
Sequence of KRAS G12C Ba/F3 cells (P01116 whole entry G12C): as the sequence (P01116 whole entry G12D, canonical isoform) above, with D12C counted along it
T2 sequence (P01116 1-169 isoform P01116-2 G12C/C51S/C80L/C118S): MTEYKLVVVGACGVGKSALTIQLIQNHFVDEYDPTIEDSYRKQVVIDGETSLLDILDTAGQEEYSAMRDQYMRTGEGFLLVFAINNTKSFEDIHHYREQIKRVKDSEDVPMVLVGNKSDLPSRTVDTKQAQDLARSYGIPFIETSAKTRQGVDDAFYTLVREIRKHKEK
T3 sequence (P08684 whole entry): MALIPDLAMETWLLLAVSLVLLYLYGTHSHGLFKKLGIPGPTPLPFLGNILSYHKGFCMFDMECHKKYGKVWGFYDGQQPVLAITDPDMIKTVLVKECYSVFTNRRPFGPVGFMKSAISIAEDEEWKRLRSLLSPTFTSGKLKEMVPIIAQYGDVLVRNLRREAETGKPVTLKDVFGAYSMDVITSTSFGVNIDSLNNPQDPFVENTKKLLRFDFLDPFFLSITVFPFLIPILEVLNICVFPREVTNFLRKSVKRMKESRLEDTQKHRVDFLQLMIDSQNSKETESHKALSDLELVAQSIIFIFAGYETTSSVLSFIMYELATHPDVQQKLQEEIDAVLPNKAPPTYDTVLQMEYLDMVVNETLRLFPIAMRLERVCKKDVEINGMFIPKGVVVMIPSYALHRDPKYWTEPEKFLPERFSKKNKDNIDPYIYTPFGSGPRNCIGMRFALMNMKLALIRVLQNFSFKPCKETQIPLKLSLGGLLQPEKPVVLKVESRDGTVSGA

SMILES	IC50 (KRAS (G12D)::SOS1) [nM]	IC50 (KRAS (G12C)::SOS1) [nM]	GI50 (KRAS G12D Ba/F3 cells) [nM]	GI50 (KRAS G12C Ba/F3 cells) [nM]	IC50 [1] [nM]	MBI 3A4 (CYP3A4) [%]	solubility at 24 h [2, 3] [µg/mL]	solubility at 24 h [2, 4] [µg/mL]	Papp A→B at 90 min, 10 μM (Caco-2 assay) [×10⁻⁶ cm/s]	efflux ratio at 90 min, 10 μM (Caco-2 assay)
C[C@H](Oc1nccc(-c2noc3c2CCC[C@@]32CCCc3sc(N)c(C#N)c32)n1)[C@@H]1CCCN1C [IIb-6]	2	4	13	19	402	52	> 110	> 110	21	1.3
C[C@H](Oc1nccc(-c2onc3c2CCC[C@@]32CCCc3sc(N)c(C#N)c32)n1)[C@@H]1CCCN1C [Ib-1]	2	3	24	51	1440	54	> 110	> 110	26	1.3
